Results from PMC10845951, “Characterization of a selective, iron-chelating antifungal compound that disrupts fungal metabolism and synergizes with fluconazole” (Microbiology Spectrum, 2024).

Test system: C. glabrata gene expression
Assay: RNA sequencing (gene regulation)
Format: cell-based, Candida glabrata
Conditions: for Log2 Fold-Change: vs DMSO; for Regulation Status: 26CvsDMSO
Procedure: Cells from overnight precultures in YPD medium were reinoculated in fresh YNB −iron medium (see “Culture maintenance” for contents) without iron and grown until OD600 of 0.4. […] Cells were collected from three independent experiments, snap frozen, and stored at −80°C. Total RNA purification was performed as previously described using the RNeasy Mini Kit (74104, Qiagen), and gDNA removal was made using the RNase-Free DNase Set kit (79254, Qiagen). RNA quantification and quality control were done with a Tape Station 4150 (Agilent) ([59]).
Library preparation and sequencing were performed at GenomEast (IGBMC, Illkirch, France). One DMSO 0.05% sample was excluded from the analysis due to insufficient quality. The library was sequenced on Illumina Hiseq 4000 sequencer as single-read 50-base reads following Illumina’s instructions. Reads were pre-processed in order to remove adapter, polyA, and low-quality sequences (Phred quality score below 20). Reads shorter than 40 bases were discarded from further analysis. These pre-processing steps were performed using cutadapt version 1.10 ([60]). Image analysis and base calling were performed using RTA 2.7.7 and bcl2fastq2.17.1.14. Adapter dimer reads were removed using DimerRemover (https://sourceforge.net/projects/dimerremover/). The quality of the RNAseq reads was examined using FastQC 0.11.2 (http://www.bioinformatics.babraham.ac.uk/projects/fastqc/) and FastQScreen 0.5.1 (https://www.bioinformatics.babraham.ac.uk/projects/fastq_screen/). Reads were mapped onto the ASM254v2 assembly of Candida glabrata genome using STAR version 2.5.3a ([61]). Gene expression quantification was performed from uniquely aligned reads using htseq-count version 0.6.1p1 ([62]), with annotations from Ensembl fungi version 50 and union mode. Only non-ambiguously assigned reads have been retained for further analyses. Read counts were normalized across samples with the median-of-ratios method ([63]). Comparisons were implemented in the Bioconductor package DESeq2 version 1.16.1 using the test for differential expression ([64]). Genes with no P-value corresponded to genes with high Cook’s distance that were filtered out. P-values were adjusted for multiple testing using the Benjamini and Hochberg method ([65]). Genes with no adjusted P-value correspond to genes filtered out in the independent filtering step in order to remove reads from genes that have no or little chance of showing evidence of significant differential expression.

`c1ccc(-c2cccc(-c3ccccn3)n2)nc1` [2,2′:6′,2′′-terpyridine] was tested, and the “Log2 Fold-Change” value (TSA1 CAGL0K06259g) was 1.052, the “Log2 Fold-Change” value (ZPR1 CAGL0K00759g) was 0.6092 and the “Regulation Status” value (gene CAGL0F07029g MET13) was “Downregulated”. The “Regulation Status” value (gene CAGL0F07513g) was “Downregulated”, the “Regulation Status” value (gene CAGL0F08481g) was “Downregulated” and the “Regulation Status” value (gene CAGL0F08503g) was “Downregulated”. For the same compound, the “Regulation Status” value (gene CAGL0F09163g) was “Downregulated”, the “Regulation Status” value (gene CAGL0G01903g MET1) was “Downregulated” and the “Regulation Status” value (gene CAGL0G02695g) was “Downregulated”. The “Regulation Status” value (gene CAGL0G03619g) was “Downregulated”, the “Regulation Status” value (gene CAGL0G03861g) was “Downregulated” and the “Regulation Status” value (gene CAGL0G03883g) was “Downregulated”. For the same compound, the “Regulation Status” value (gene CAGL0G03905g) was “Downregulated”, the “Regulation Status” value (gene CAGL0G06050g) was “Downregulated” and the “Regulation Status” value (gene CAGL0G06402g) was “Downregulated”. For the same compound, the “Regulation Status” value (gene CAGL0G06600g) was “Downregulated”, the “Regulation Status” value (gene CAGL0G06732g) was “Downregulated” and the “Regulation Status” value (gene CAGL0G07711g) was “Downregulated”. The “Regulation Status” value (gene CAGL0G08712g KGD1) was “Downregulated”, the “Regulation Status” value (gene CAGL0G09581g) was “Downregulated” and the “Regulation Status” value (gene CAGL0G10131g) was “Downregulated”. For the same compound, the “Regulation Status” value (gene CAGL0G10153g) was “Downregulated”, the “Regulation Status” value (gene CAGL0H02365g) was “Downregulated” and the “Regulation Status” value (gene CAGL0H02491g) was “Downregulated”. The “Regulation Status” value (gene CAGL0H02541g) was “Downregulated”, the “Regulation Status” value (gene CAGL0H03531g MNP1) was “Downregulated” and the “Regulation Status” value (gene CAGL0H03795g LEU2) was “Downregulated”. The “Regulation Status” value (gene CAGL0H03993g CIT1) was “Downregulated”, the “Regulation Status” value (gene CAGL0H05775g) was “Downregulated” and the “Regulation Status” value (gene CAGL0H05797g) was “Downregulated”. The “Regulation Status” value (gene CAGL0H06732g) was “Downregulated”, the “Regulation Status” value (gene CAGL0H06743g) was “Downregulated” and the “Regulation Status” value (gene CAGL0H07023g) was “Downregulated”. The “Regulation Status” value (gene CAGL0H08283g HSP10) was “Downregulated”, the “Regulation Status” value (gene CAGL0H09306g) was “Downregulated” and the “Regulation Status” value (gene CAGL0H09328g) was “Downregulated”. The “Regulation Status” value (gene CAGL0H10076g) was “Downregulated”, the “Regulation Status” value (gene CAGL0I00924g) was “Downregulated” and the “Regulation Status” value (gene CAGL0I01276g) was “Downregulated”. For the same compound, the “Regulation Status” value (gene CAGL0I01298g) was “Downregulated”, the “Regulation Status” value (gene CAGL0I01408g CYC1) was “Downregulated” and the “Regulation Status” value (gene CAGL0I01496g) was “Downregulated”. The “Regulation Status” value (gene CAGL0I01848g) was “Downregulated”, the “Regulation Status” value (gene CAGL0I02728g) was “Downregulated” and the “Regulation Status” value (gene CAGL0I03190g RIP1) was “Downregulated”. The “Regulation Status” value (gene CAGL0I04180g AMT1) was “Downregulated”, the “Regulation Status” value (gene CAGL0I04994g MET6) was “Downregulated” and the “Regulation Status” value (gene CAGL0I05280g) was “Downregulated”. The “Regulation Status” value (gene CAGL0I05698g) was “Downregulated”, the “Regulation Status” value (gene CAGL0I06270g) was “Downregulated” and the “Regulation Status” value (gene CAGL0I06644g) was “Downregulated”. For the same compound, the “Regulation Status” value (gene CAGL0I06831g) was “Downregulated”, the “Regulation Status” value (gene CAGL0I06985g) was “Downregulated” and the “Regulation Status” value (gene CAGL0I07969g) was “Downregulated”. The “Regulation Status” value (gene CAGL0I08305g) was “Downregulated”, the “Regulation Status” value (gene CAGL0I08503g) was “Downregulated” and the “Regulation Status” value (gene CAGL0I08767g) was “Downregulated”. For the same compound, the “Regulation Status” value (gene CAGL0I09009g) was “Downregulated”, the “Regulation Status” value (gene CAGL0I09262g) was “Downregulated” and the “Regulation Status” value (gene CAGL0I09812g) was “Downregulated”. The “Regulation Status” value (gene CAGL0I10923g) was “Downregulated”, the “Regulation Status” value (gene CAGL0J00429g COX6) was “Downregulated” and the “Regulation Status” value (gene CAGL0J00847g SDH1) was “Downregulated”. The “Regulation Status” value (gene CAGL0J01463g) was “Downregulated”, the “Regulation Status” value (gene CAGL0J01699g) was “Downregulated” and the “Regulation Status” value (gene CAGL0J02090g) was “Downregulated”. The “Regulation Status” value (gene CAGL0J03806g) was “Downregulated”, the “Regulation Status” value (gene CAGL0J04026g) was “Downregulated” and the “Regulation Status” value (gene CAGL0J04268g) was “Downregulated”. The “Regulation Status” value (gene CAGL0J04554g) was “Downregulated”, the “Regulation Status” value (gene CAGL0J04884g) was “Downregulated” and the “Regulation Status” value (gene CAGL0J05302g) was “Downregulated”. The “Regulation Status” value (gene CAGL0J06380g) was “Downregulated”, the “Regulation Status” value (gene CAGL0J06490g) was “Downregulated” and the “Regulation Status” value (gene CAGL0J06820g) was “Downregulated”. The “Regulation Status” value (gene CAGL0J08316g) was “Downregulated”, the “Regulation Status” value (gene CAGL0J09680g) was “Downregulated” and the “Regulation Status” value (gene CAGL0J09790g) was “Downregulated”. For the same compound, the “Regulation Status” value (gene CAGL0J11484g DUG3) was “Downregulated”, the “Regulation Status” value (gene CAGL0J11682g) was “Downregulated” and the “Regulation Status” value (gene CAGL0K00110g AWP2) was “Downregulated”. For the same compound, the “Regulation Status” value (gene CAGL0K02409g) was “Downregulated”, the “Regulation Status” value (gene CAGL0K02893g) was “Downregulated” and the “Regulation Status” value (gene CAGL0K03663g) was “Downregulated”. For the same compound, the “Regulation Status” value (gene CAGL0K04279g SCM4) was “Downregulated”, the “Regulation Status” value (gene CAGL0K06677g MET8) was “Downregulated” and the “Regulation Status” value (gene CAGL0K06853g) was “Downregulated”. For the same compound, the “Regulation Status” value (gene CAGL0K07315g) was “Downregulated”, the “Regulation Status” value (gene CAGL0K07678g) was “Downregulated” and the “Regulation Status” value (gene CAGL0K08184g CCP1) was “Downregulated”. The “Regulation Status” value (gene CAGL0K08668g MET28) was “Downregulated”, the “Regulation Status” value (gene CAGL0K08800g ADI1) was “Downregulated” and the “Regulation Status” value (gene CAGL0K09218g) was “Downregulated”. The “Regulation Status” value (gene CAGL0K10120g) was “Downregulated”, the “Regulation Status” value (gene CAGL0K10868g CTA1) was “Downregulated” and the “Regulation Status” value (gene CAGL0K10956g) was “Downregulated”. For the same compound, the “Regulation Status” value (gene CAGL0K10978g) was “Downregulated”, the “Regulation Status” value (gene CAGL0K12100g) was “Downregulated” and the “Regulation Status” value (gene CAGL0K12958g) was “Downregulated”. The “Regulation Status” value (gene CAGL0L00429g) was “Downregulated”, the “Regulation Status” value (gene CAGL0L00759g HIS1) was “Downregulated” and the “Regulation Status” value (gene CAGL0L00803g) was “Downregulated”.
